The structures appear in SMILES notation.

Assay [1] addresses T1, G12C-mutant human KRAS (amino acid residues 1-188) (Homo sapiens, UniProt P01116, G12C).
T1 construct: G12D or G12C-mutant human KRAS (amino acid residues 1-188) with FLAG tag; made in house; host or cells: E. coli
The assay is described as follows: KRAS Binding Disruption Assay (AlphaScreen; biotinylated KRpep-2d analogue or RAF1-RBD), G12C. As to conditions: geometric mean, read-out: KRAS GMean IC50 (uM) MUTATION: G12C. Summed up: (§1)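 Mutant KRAS (5-20 nM) incubated 1 h at 25° C with test compound and 5-20 nM biotinylated KRpep-2d analogue or RAF1-RBD in 20 mM HEPES pH 7.5, 100 mM NaCl, 5 mM MgCl2, 0.01% Tween-20, 0.01% BSA.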

For assay [2], the target named is T2, G12D-mutant human KRAS (amino acid residues 1-188) (Homo sapiens, UniProt P01116, G12D).
T2 construct: G12D or G12C-mutant human KRAS (amino acid residues 1-188) with FLAG tag; made in house; host or cells: E. coli
The assay is described as follows: KRAS Binding Disruption Assay (AlphaScreen; biotinylated KRpep-2d analogue or RAF1-RBD), G12D. As to conditions: KRAS G12D; geometric mean; read-out: KRAS GMean IC50 (uM) MUTATION: G12D. Summed up:
as §1
For orientation: Bead proximity is the source of the signal in Alpha formats.

T1 sequence (P01116 1-188 isoform P01116-2 G12C): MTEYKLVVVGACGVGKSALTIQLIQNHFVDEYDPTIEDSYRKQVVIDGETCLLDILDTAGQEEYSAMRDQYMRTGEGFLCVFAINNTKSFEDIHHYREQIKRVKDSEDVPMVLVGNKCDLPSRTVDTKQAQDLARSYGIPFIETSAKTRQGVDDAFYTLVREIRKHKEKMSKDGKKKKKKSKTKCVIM
T2 sequence (P01116 1-188 isoform P01116-2 G12D): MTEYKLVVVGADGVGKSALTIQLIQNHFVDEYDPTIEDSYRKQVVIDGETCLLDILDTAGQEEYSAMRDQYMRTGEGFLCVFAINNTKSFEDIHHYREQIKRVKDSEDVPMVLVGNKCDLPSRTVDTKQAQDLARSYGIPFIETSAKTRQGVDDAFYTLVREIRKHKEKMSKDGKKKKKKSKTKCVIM

Consider `O=C1CC(COc2nc(N3C[C@H]4CC[C@@H](C3)N4)c3ccc(-c4cc(O)cc5ccccc45)c(F)c3n2)CN1` (stereo partly drawn) [P-0766, 4-(((4-((1R,5S)-3,8-diazabicyclo[3.2.1]octan-3-yl)-8-fluoro-7-(3-hydroxynaphthalen-1-yl)quinazolin-2-yl)oxy)methyl)pyrrolidin-2-one], for which the IC50 (commonly the concentration that inhibits the measured activity by half) in assay [1] was 10 to 100 µM; in assay [2], 0.0001 to 10 µM.
With `O=C1NCCC1COc1nc(N2C[C@H]3CC[C@@H](C2)N3)c2ccc(-c3cc(O)cc4ccccc34)c(F)c2n1` (stereo partly drawn) [P-0767, 3-(((4-((1R,5S)-3,8-diazabicyclo[3.2.1]octan-3-yl)-8-fluoro-7-(3-hydroxynaphthalen-1-yl)quinazolin-2-yl)oxy)methyl)pyrrolidin-2-one], the IC50 in assay [1] lay in the range of 10 to 100 µM; in assay [2], 0.0001 to 10 µM.
For the molecule `CC(C)(O)COc1nc(N2C[C@H]3CC[C@@H](C2)N3)c2ccc(-c3cc(O)cc4ccccc34)c(F)c2n1` [P-0768, 4-(4-((1R,5S)-3,8-diazabicyclo[3.2.1]octan-3-yl)-8-fluoro-2-(2-hydroxy-2-methylpropoxy)quinazolin-7-yl)naphthalen-2-ol], the IC50 in assay [1] fell in the range of 10 to 100 µM; in assay [2] it was 0.0001 to 10 µM.
Consider `Oc1cc(-c2ccc3c(N4C[C@H]5CC[C@@H](C4)N5)nc(CCNc4ncccn4)nc3c2F)c2ccccc2c1` [P-0769, 4-(4-((1R,5S)-3,8-diazabicyclo[3.2.1]octan-3-yl)-8-fluoro-2-(2-(pyrimidin-2-ylamino)ethyl)quinazolin-7-yl)naphthalen-2-ol], for which the IC50 in assay [1] was in the range of 10 to 100 µM; in assay [2], 0.0001 to 10 µM.
With `CC(=O)NCCc1nc(N2C[C@H]3CC[C@@H](C2)N3)c2ccc(-c3cc(O)cc4ccccc34)c(F)c2n1` [P-0770, N-(2-(4-((1R,5S)-3,8-diazabicyclo[3.2.1]octan-3-yl)-8-fluoro-7-(3-hydroxynaphthalen-1-yl)quinazolin-2-yl)ethyl)acetamide], the IC50 in assay [1] lay within 10 to 100 µM; in assay [2], 0.0001 to 10 µM.
The matching figures for `CS(=O)(=O)NCCc1nc(N2C[C@H]3CC[C@@H](C2)N3)c2ccc(-c3cc(O)cc4ccccc34)c(F)c2n1` [P-0771, N-(2-(4-((1R,5S)-3,8-diazabicyclo[3.2.1]octan-3-yl)-8-fluoro-7-(3-hydroxynaphthalen-1-yl)quinazolin-2-yl)ethyl)methanesulfonamide]: 10 to 100 µM and 0.0001 to 10 µM.
On to `COc1ccc(CNCCc2nc(N3C[C@H]4CC[C@@H](C3)N4)c3ccc(-c4cc(O)cc5ccccc45)c(F)c3n2)cc1` [P-0772, 4-(4-((1R,5S)-3,8-diazabicyclo[3.2.1]octan-3-yl)-8-fluoro-2-(2-((4-methoxybenzyl)amino)ethyl)quinazolin-7-yl)naphthalen-2-ol], for which the results for the IC50 in assay [1] and in assay [2] were 10 to 100 µM and 0.0001 to 10 µM, respectively.
Take `CP(C)(=O)CC(=O)N1[C@@H]2CC[C@H]1CN(c1nc(OCC34CCCN3CCC4)nc3c(F)c(-c4cc(O)cc5ccccc45)ccc13)C2` [P-0773, 2-(dimethylphosphoryl)-1-((1R,5S)-3-(8-fluoro-7-(3-hydroxynaphthalen-1-yl)-2-((tetrahydro-1H-pyrrolizin-7a(5H)-yl)methoxy)quinazolin-4-yl)-3,8-diazabicyclo[3.2.1]octan-8-yl)ethan-1-one]: the IC50 in assay [1] and in assay [2] was 0.0001 to 10 µM each time.
As to `Fc1cc2c(N3C[C@H]4CC[C@@H](C3)N4)nc(OCC34CCCN3CCC4)nc2c(F)c1-c1c[nH]c2ccc(Cl)c(Cl)c12` [P-0774, 4-((1R,5S)-3,8-diazabicyclo[3.2.1]octan-3-yl)-7-(4,5-dichloro-1H-indol-3-yl)-6,8-difluoro-2-((tetrahydro-1H-pyrrolizin-7a(5H)-yl)methoxy)quinazoline], the IC50 in assay [1] and in assay [2] was 0.0001 to 10 µM each time.
In the case of `Oc1cc(-c2ccc3c(N4C[C@H]5CC[C@@H](C4)N5)nc(OCC4CCCCO4)nc3c2F)c2ccccc2c1` (stereo partly drawn) [P-0775, 4-(4-((1R,5S)-3,8-diazabicyclo[3.2.1]octan-3-yl)-8-fluoro-2-((tetrahydro-2H-pyran-2-yl)methoxy)quinazolin-7-yl)naphthalen-2-ol], the values for the IC50 in assay [1] and in assay [2] were 10 to 100 µM and 0.0001 to 10 µM, respectively.
In the case of `Oc1cc(-c2ccc3c(N4C[C@H]5CC[C@@H](C4)N5)nc(OCC4CCCOC4)nc3c2F)c2ccccc2c1` (stereo partly drawn) [P-0776, 4-(4-((1R,5S)-3,8-diazabicyclo[3.2.1]octan-3-yl)-8-fluoro-2-((tetrahydro-2H-pyran-3-yl)methoxy)quinazolin-7-yl)naphthalen-2-ol], the figures for the IC50 in assay [1] and in assay [2] were 10 to 100 µM and 0.0001 to 10 µM, respectively.
The like results for `Cc1cc(COc2nc(N3C[C@H]4CC[C@@H](C3)N4)c3ccc(-c4cc(O)cc5ccccc45)c(F)c3n2)no1` [P-0777, 4-(4-((1R,5S)-3,8-diazabicyclo[3.2.1]octan-3-yl)-8-fluoro-2-((5-methylisoxazol-3-yl)methoxy)quinazolin-7-yl)naphthalen-2-ol] were, in that order, 10 to 100 µM and 0.0001 to 10 µM.
Consider `Oc1cc(-c2ccc3c(N4C[C@H]5CC[C@@H](C4)N5)nc(OCC4CC(F)(F)C4)nc3c2F)c2ccccc2c1` [P-0778, 4-(4-((1R,5S)-3,8-diazabicyclo[3.2.1]octan-3-yl)-2-((3,3-difluorocyclobutyl)methoxy)-8-fluoroquinazolin-7-yl)naphthalen-2-ol], for which the IC50 was in the range of 10 to 100 µM in assay [1] and 0.0001 to 10 µM in assay [2].
Turning to `Oc1cc(-c2ccc3c(N4C[C@H]5CC[C@@H](C4)N5)nc(OCC4CCCCC4)nc3c2F)c2ccccc2c1` [P-0779, 4-(4-((1R,5S)-3,8-diazabicyclo[3.2.1]octan-3-yl)-2-(cyclohexylmethoxy)-8-fluoroquinazolin-7-yl)naphthalen-2-ol], the IC50 in assay [1] was in the range of 10 to 100 µM; in assay [2], 0.0001 to 10 µM.
For `CN1CCC[C@H]1COc1nc(N2C[C@H]3CC[C@@H](C2)N3)c2cc(F)c(-c3c[nH]c4ncccc34)c(F)c2n1` [P-0780, 4-((1R,5S)-3,8-diazabicyclo[3.2.1]octan-3-yl)-6,8-difluoro-2-(((S)-1-methylpyrrolidin-2-yl)methoxy)-7-(1H-pyrrolo[2,3-b]pyridin-3-yl)quinazoline], the values for the IC50 in assay [1] and in assay [2] were 100 to 1000 µM and 10 to 100 µM, respectively.
With `CN1CCC[C@H]1COc1nc(N2C[C@H]3CC[C@@H](C2)N3)c2ccc(-c3nccc4ccc(F)cc34)c(F)c2n1` [P-0781, 4-((1R,5S)-3,8-diazabicyclo[3.2.1]octan-3-yl)-8-fluoro-7-(7-fluoroisoquinolin-1-yl)-2-(((S)-1-methylpyrrolidin-2-yl)methoxy)quinazoline], the IC50 in assay [1] is 100 to 1000 µM; in assay [2] it was 10 to 100 µM.
On to `CN1CCC[C@H]1COc1nc(N2C[C@H]3CC[C@@H](C2)N3)c2ccc(-c3cccc4cccc(Cl)c34)c(F)c2n1` [P-0782, 4-((1R,5S)-3,8-diazabicyclo[3.2.1]octan-3-yl)-7-(8-chloronaphthalen-1-yl)-8-fluoro-2-(((S)-1-methylpyrrolidin-2-yl)methoxy)quinazoline], for which the IC50 in assay [1] lay in the range of 10 to 100 µM; in assay [2] it was 0.0001 to 10 µM.
Regarding `CN1CCC[C@H]1COc1nc(N2C[C@H]3CC[C@@H](C2)N3)c2ccc(-c3cccc4ccccc34)c(F)c2n1` [P-0783, 4-((1R,5S)-3,8-diazabicyclo[3.2.1]octan-3-yl)-8-fluoro-2-(((S)-1-methylpyrrolidin-2-yl)methoxy)-7-(naphthalen-1-yl)quinazoline], the IC50 fell in the range of 100 to 1000 µM in assay [1] and 0.0001 to 10 µM in assay [2].
Consider `OCCOc1nc(N2C[C@H]3CC[C@@H](C2)N3)c2ccc(-c3cc(O)cc4ccccc34)c(F)c2n1` [P-0784, 4-(4-((1R,5S)-3,8-diazabicyclo[3.2.1]octan-3-yl)-8-fluoro-2-(2-hydroxyethoxy)quinazolin-7-yl)naphthalen-2-ol], for which the IC50 was 10 to 100 µM in assay [1] and 0.0001 to 10 µM in assay [2].
Regarding `CC1(COc2nc(N3C[C@H]4CC[C@@H](C3)N4)c3ccc(-c4cc(O)cc5ccccc45)c(F)c3n2)COC1` [P-0785, 4-(4-((1R,5S)-3,8-diazabicyclo[3.2.1]octan-3-yl)-8-fluoro-2-((3-methyloxetan-3-yl)methoxy)quinazolin-7-yl)naphthalen-2-ol], the IC50 in assay [1] and in assay [2] was 100 to 1000 µM each time.
Consider `Cn1cncc1COc1nc(N2C[C@H]3CC[C@@H](C2)N3)c2ccc(-c3cc(O)cc4ccccc34)c(F)c2n1` [P-0786, 4-(4-((1R,5S)-3,8-diazabicyclo[3.2.1]octan-3-yl)-8-fluoro-2-((1-methyl-1H-imidazol-5-yl)methoxy)quinazolin-7-yl)naphthalen-2-ol], for which the IC50 in assay [1] and in assay [2] was 0.0001 to 10 µM each time.
Regarding `Oc1cc(-c2ccc3c(N4C[C@H]5CC[C@@H](C4)N5)nc(OC4CCC(O)CC4)nc3c2F)c2ccccc2c1` (stereo partly drawn) [P-0787, 4-(4-((1R,5S)-3,8-diazabicyclo[3.2.1]octan-3-yl)-8-fluoro-2-((4-hydroxycyclohexyl)oxy)quinazolin-7-yl)naphthalen-2-ol], the results for the IC50 in assay [1] and in assay [2] were 10 to 100 µM and 0.0001 to 10 µM, respectively.
As to `Fc1cc2c(N3C[C@H]4CC[C@@H](C3)N4)nc(OCC34CCCN3CCC4)nc2c(F)c1-c1c[nH]c2ccc(F)c(F)c12` [P-0788, 4-((1R,5S)-3,8-diazabicyclo[3.2.1]octan-3-yl)-7-(4,5-difluoro-1H-indol-3-yl)-6,8-difluoro-2-((tetrahydro-1H-pyrrolizin-7a(5H)-yl)methoxy)quinazoline], the IC50 in assay [1] and in assay [2] was 0.0001 to 10 µM in each case.
With `Fc1cc2[nH]cc(-c3c(F)cc4c(N5C[C@H]6CC[C@@H](C5)N6)nc(OCC56CCCN5CCC6)nc4c3F)c2cc1F` [P-0789, 4-((1R,5S)-3,8-diazabicyclo[3.2.1]octan-3-yl)-7-(5,6-difluoro-1H-indol-3-yl)-6,8-difluoro-2-((tetrahydro-1H-pyrrolizin-7a(5H)-yl)methoxy)quinazoline], the IC50 in assay [1] was 10 to 100 µM; in assay [2], 0.0001 to 10 µM.
